Like-named read-outs stand apart in the source and are kept apart here.
Legend:
human OATP2B1 = target: T1, human OATP2B1 (Homo sapiens, UniProt O94956); experiment: Cascade Blue uptake assay of OATP2B1 transport activity; type: cell-based
T1 construct: expressed in transfected cells; host or cells: A431 cells
T1 sequence (O94956 1-709): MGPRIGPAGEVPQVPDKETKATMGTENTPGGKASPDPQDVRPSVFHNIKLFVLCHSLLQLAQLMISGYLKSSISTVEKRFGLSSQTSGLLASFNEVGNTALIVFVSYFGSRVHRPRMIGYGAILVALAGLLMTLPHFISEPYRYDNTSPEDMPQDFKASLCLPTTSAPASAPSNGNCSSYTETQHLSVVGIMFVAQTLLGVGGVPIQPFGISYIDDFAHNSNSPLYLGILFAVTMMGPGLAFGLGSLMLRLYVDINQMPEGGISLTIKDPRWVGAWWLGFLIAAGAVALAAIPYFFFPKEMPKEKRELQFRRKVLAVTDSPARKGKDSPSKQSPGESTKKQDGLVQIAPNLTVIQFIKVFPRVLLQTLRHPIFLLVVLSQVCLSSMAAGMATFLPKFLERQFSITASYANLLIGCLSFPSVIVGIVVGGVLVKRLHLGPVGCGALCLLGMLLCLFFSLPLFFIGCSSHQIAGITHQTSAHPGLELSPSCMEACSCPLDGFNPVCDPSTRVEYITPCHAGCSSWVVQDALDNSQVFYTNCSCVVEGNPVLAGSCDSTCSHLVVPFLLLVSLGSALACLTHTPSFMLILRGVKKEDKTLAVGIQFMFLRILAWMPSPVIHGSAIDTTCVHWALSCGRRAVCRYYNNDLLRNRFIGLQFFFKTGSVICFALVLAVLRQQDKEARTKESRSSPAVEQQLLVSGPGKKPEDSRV
Protocol: CascadeBlue assay.S1 A431 cells ([…] in 200 μl) overexpressing human OATP2B1 or transfected with the vector control were seeded on 96 well plates 16 hours prior to the transport measurement. Transport reaction was performed as described in.S1 Briefly, after washing the cells 3-times with 200 µl 1 × phosphate buffered saline (PBS) the cells were preincubated with test compounds in final concentrations from 0.03 to 50 µM or dimethyl sulfoxide (used as a solvent for the test compounds and serving as non-treated control) for 5 minutes at 37 °C. The reaction was started with the addition of 50 µl Cascade Blue (resulting in final concentration of 10 µM) and the cells were further incubated at 37 °C for 30 minutes.
The reaction was stopped by the addition of 200 µl ice-cold 1 × PBS, and after 3 washing steps the fluorescence remaining in the cells was determined by Enspire fluorescent plate reader (Perkin Elmer) at 400 nm excitation and 419 nm emission wavelengths. Transport activity was determined by subtracting fluorescence in mock transfected cells. Kinetics of inhibition was determined by Hill fit using the Origin 8.6 software. […]

[1] = target: T2, human placental steroid sulfatase (STS) (Homo sapiens, UniProt P08842); experiment: STS in vitro radiosubstrate incubation (estrone-3-sulfate to estrone conversion); type: biochemical; conditions: relative conversion vs non-inhibited control (100%); test compound 10 μM; substrate E1S 1.0 μM; placental microsomes; n = 3; read-out: STS rel. conv. ± SD
T2 construct: from tissue; host or cells: human term placenta, microsomes
T2 sequence (P08842 22-583): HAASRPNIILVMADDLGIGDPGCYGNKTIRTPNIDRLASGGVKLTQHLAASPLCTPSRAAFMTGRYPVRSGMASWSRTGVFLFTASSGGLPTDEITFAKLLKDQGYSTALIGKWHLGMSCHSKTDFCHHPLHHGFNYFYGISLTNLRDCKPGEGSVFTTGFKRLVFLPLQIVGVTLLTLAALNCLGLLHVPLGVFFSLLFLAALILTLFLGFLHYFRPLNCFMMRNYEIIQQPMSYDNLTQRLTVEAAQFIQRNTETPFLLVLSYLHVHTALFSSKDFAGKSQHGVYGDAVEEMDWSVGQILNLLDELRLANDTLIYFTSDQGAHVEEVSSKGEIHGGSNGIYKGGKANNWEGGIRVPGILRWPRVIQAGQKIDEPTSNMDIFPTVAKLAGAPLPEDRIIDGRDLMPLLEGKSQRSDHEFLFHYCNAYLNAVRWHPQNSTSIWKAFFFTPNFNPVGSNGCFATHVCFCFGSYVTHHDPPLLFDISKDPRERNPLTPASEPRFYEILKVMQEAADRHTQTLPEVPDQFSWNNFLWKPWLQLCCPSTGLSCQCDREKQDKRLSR
Protocol: (§1) The ability of the synthesized compounds 8–13 to inhibit activity of steroid sulfatase (STS) and 17β-hydroxysteroid dehydrogenase type 1 (17β-HSD1) was examined. In vitro radiosubstrate incubations were performed with adapted literature methodsS2–4 and human placenta served as source of the enzymes. Radiolabelled steroids were obtained from American Radiolabeled Chemicals (St. Louis, MO, USA). Other chemicals and solvents of analytical grade purity were purchased from Sigma (St. Louis, MO, USA), from Fluka (Buchs, Switzerland) or from Merck (Darmstadt, Germany).
(§2) 3.2. Preparation of enzyme sources
(§3) Human term placentae were collected immediately after delivery and stored frozen at −80 °C.
(§4) Tissue specimens were homogenized with an Ultra-Turrax in 0.1 M HEPES buffer solution […]
(§5) (pH 7.3) containing 1 mM EDTA and 1 mM dithiotreitol, and cytosol and microsomas were obtained with fractionated centrifugation. Application of the human tissue was approved by the institutional Human Investigation Review Board.
(§6) 3.3. Incubation procedures
(§7) Enzymatic incubations were carried out in the HEPES buffer medium at a final volume of 200
(§8) µl. The substrate was added to the incubate in 20 μl of a 25 % v/v propylene glycol in HEPES buffer solution, whereas test compounds were applied in 10 μl of dimethyl sulfoxide solution.
Incubations were performed at 37 °C and terminated by cooling and the addition of organic solvents of the subsequent extraction procedure. Control samples with no inhibitor and blank samples were incubated simultaneously. The radioactivity of the products formed was measured by means of liquid scintillation counting (LSC) and taken as indicator of the […]
STS assays were performed using microsoma suspension and estrone-3-sulfate (E1S) substrate with [6,7-3H]estrone-3-sulfate tracer with incubations lasting for 20 min. Reactions were terminated by the addition of equal volume of methanol, and the product estrone (E1) was extracted with toluene.S4 […]
(§9) In the general procedure, incubations were performed as described. Concentrations of the substrates were 1.0 μM, and the test compounds were applied at 10 μM final concentration in the incubate. Relative conversions compared to non-inhibited controls (100%) were determined. The assays were performed in triplicate, and the mean value and the standard deviation (SD) were calculated.
(§10) In these cases, conversions were measured at 10–15 different concentrations in the appropriate interval between 0.001–50 μM. IC50 results were calculated by using unweighted iterative least squares logistic curve fitting by means of the “absolute IC50 calculation“ function of the GraphPad Prism 4.0 software (GraphPad Software, Inc., San Diego, CA, USA).

[2] = target: T3, 17β-hydroxysteroid dehydrogenase type 1 (17β-HSD1) (Homo sapiens, UniProt P14061); experiment: 17β-HSD1 in vitro radiosubstrate incubation (estrone to 17β-estradiol conversion); type: biochemical; conditions: for remaining activity at 10 µM: read-out: 17β-HSD1 rel. conv. ± SD
T3 construct: from tissue; host or cells: human term placenta, cytosol
T3 sequence (P14061 1-328): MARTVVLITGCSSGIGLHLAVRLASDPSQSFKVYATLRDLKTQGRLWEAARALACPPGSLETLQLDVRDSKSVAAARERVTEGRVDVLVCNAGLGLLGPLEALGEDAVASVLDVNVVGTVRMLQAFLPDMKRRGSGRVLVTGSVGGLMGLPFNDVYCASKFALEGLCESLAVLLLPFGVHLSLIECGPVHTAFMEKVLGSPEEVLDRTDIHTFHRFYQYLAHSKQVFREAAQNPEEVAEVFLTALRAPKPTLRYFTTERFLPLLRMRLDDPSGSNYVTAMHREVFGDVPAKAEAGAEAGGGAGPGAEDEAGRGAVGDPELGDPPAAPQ
Protocol: as §1, §2, §3, §4, §5, §6, §7, §8
Incubations were performed at 37 °C and terminated by cooling and the addition of organic solvents of the subsequent extraction procedure. Control samples with no inhibitor and blank samples were incubated simultaneously. […]
In the 17β-HSD1 assays the cytosol was incubated using estrone (E1) substrate with [6,7-3H]estrone tracer and 0.1 mM NADPH cofactor excess. The incubation time was 2.5 min. The product 17β-estradiol (E2) was extracted with ethyl acetate and isolated by a TLC method.S5 […]
as §9, §10

[3] = A431 cells overexpressing human OATP2B1, Cascade Blue 10 μM, 30 min, 37 °C, read-out: OATP2B1 IC50 ± SD

| SMILES | IC50 (human OATP2B1) [µM] | remaining activity at 10 µM [1] [%] | IC50 ([2]; human placental cytosol, estrone 1.0 μM, 0.1 mM NADPH, read-out: 17β-HSD1 IC50 ± SD) [µM] | remaining activity at 10 µM [2] [%] | IC50 [2] [µM] | IC50 (human OATP2B1; [3]) [µM] |
| --- | --- | --- | --- | --- | --- | --- |
| C[C@@]12CC[C@@H]3c4cc(P(=O)(c5ccccc5)c5ccccc5)c(O)cc4CC[C@H]3[C@@H]1CCC2=O [9b, (3-hydroxy-13α-estra-1,3,5(10)-trien-17-on-2-yl)diphenylphosphine oxide] | 2.6 ± 0.2 | 77 ± 10 | 0.18 ± 0.06 |  |  |  |
| C[C@@]12CC[C@@H]3c4ccc(OCc5ccccc5)c(P(=O)(c5ccccc5)c5ccccc5)c4CC[C@H]3[C@@H]1CCC2=O [13b, (3-benzyloxy-13α-estra-1,3,5(10)-trien-17-on-4-yl)diphenylphosphine oxide] | 0.3 ± 0.02 | 105 ± 7 |  | 75 ± 2 |  |  |
| CCOP(=O)(OCC)c1cc2c(cc1OC)CC[C@@H]1[C@@H]2CC[C@@]2(C)C(=O)CC[C@@H]12 [8a, diethyl (3-methoxy-13α-estra-1,3,5(10)-trien-17-on-2-yl)phosphonate] | 1.8 ± 0.3 | 84 ± 4 |  | 60 ± 3 |  |  |
| CCOP(=O)(OCC)c1c(O)ccc2c1CC[C@@H]1[C@@H]2CC[C@@]2(C)C(=O)CC[C@@H]12 [12a, diethyl (3-hydroxy-13α-estra-1,3,5(10)-trien-17-on-4-yl)phosphonate] | 1.4 ± 0.1 | 93 ± 6 |  | 84 ± 4 |  |  |
| CCOP(=O)(OCC)c1cc2c(cc1O)CC[C@@H]1[C@@H]2CC[C@@]2(C)C(=O)CC[C@@H]12 [9a, diethyl (3-hydroxy-13α-estra-1,3,5(10)-trien-17-on-2-yl)phosphonate] | 2.1 ± 0.2 | 97 ± 5 |  |  | 1.5 ± 0.3 |  |
| CCOP(=O)(OCC)c1c(OCc2ccccc2)ccc2c1CC[C@@H]1[C@@H]2CC[C@@]2(C)C(=O)CC[C@@H]12 [13a, diethyl (3-benzyloxy-13α-estra-1,3,5(10)-trien-17-on-4-yl)phosphonate] | 0.3 ± 0.02 | 87 ± 5 |  | 92 ± 3 |  |  |
| C[C@@]12CC[C@@H]3c4cc(P(=O)(c5ccccc5)c5ccccc5)c(OCc5ccccc5)cc4CC[C@H]3[C@@H]1CCC2=O [10b, (3-benzyloxy-13α-estra-1,3,5(10)-trien-17-on-2-yl)diphenylphosphine oxide] | 1 ± 0.1 | 85 ± 5 |  | 73 ± 3 |  |  |
| COc1cc2c(cc1P(=O)(c1ccccc1)c1ccccc1)[C@H]1CC[C@@]3(C)C(=O)CC[C@H]3[C@@H]1CC2 [8b, (3-methoxy-13α-estra-1,3,5(10)-trien-17-on-2-yl)diphenylphosphine oxide] | 1.2 ± 0.1 | 80 ± 8 |  |  | 4.1 ± 1.1 |  |
| CCOP(=O)(OCC)c1c(OC)ccc2c1CC[C@@H]1[C@@H]2CC[C@@]2(C)C(=O)CC[C@@H]12 [11a, diethyl (3-methoxy-13α-estra-1,3,5(10)-trien-17-on-4-yl)phosphonate] | 2.8 ± 1.5 | 93 ± 7 |  | 100 ± 5 |  |  |
| CCOP(=O)(OCC)c1cc2c(cc1OCc1ccccc1)CC[C@@H]1[C@@H]2CC[C@@]2(C)C(=O)CC[C@@H]12 [10a, diethyl (3-benzyloxy-13α-estra-1,3,5(10)-trien-17-on-2-yl)phosphonate] | 0.2 ± 0.02 | 85 ± 7 |  | 64 ± 3 |  |  |
| COc1ccc2c(c1)CC[C@@H]1[C@@H]2CC[C@@]2(C)C(=O)CC[C@@H]12 [13αE1OMe, reference compound] |  |  |  |  |  | 3.4 ± 0.3 |
| C[C@@]12CC[C@@H]3c4ccc(O)c(P(=O)(c5ccccc5)c5ccccc5)c4CC[C@H]3[C@@H]1CCC2=O [12b, (3-hydroxy-13α-estra-1,3,5(10)-trien-17-on-4-yl)diphenylphosphine oxide] | > 50 | 93 ± 4 |  | 100 ± 5 |  |  |
| COc1ccc2c(c1P(=O)(c1ccccc1)c1ccccc1)CC[C@@H]1[C@@H]2CC[C@@]2(C)C(=O)CC[C@@H]12 [11b, (3-methoxy-13α-estra-1,3,5(10)-trien-17-on-4-yl)diphenylphosphine oxide] | 2.5 ± 0.4 | 80 ± 5 |  | 106 ± 8 |  |  |
| C[C@@]12CC[C@@H]3c4ccc(OCc5ccccc5)cc4CC[C@H]3[C@@H]1CCC2=O [13αE1OBn, reference compound] |  |  |  |  |  | 1.7 ± 0.9 |
